# Target: HPK1 (MAP4K1) (Homo sapiens, UniProt Q92918)
# Assay: FRET Assay for HPK1 (MAP4K1): one step binding assay, displacement of labeled tracer
# Details: for inhibition at 1 µM: 1 μM compound; for inhibition at 1 µM / inhibition at 10 µM: FRET ratio 665/620, percent of control; for inhibition at 10 µM: 10 μM compound; for IC50: dose response curve, nonlinear regression
# From the text: FRET Assay for HPK1 (MAP4K1):
# This is a one step binding assay based on the binding and displacement of the labeled tracer, where compound addition is followed by addition of the anti-GST tagged europium (Eu) as the donor and Alexa Fluor-labeled tracer as the acceptor. Simultaneous binding of both the tracer and GST-antibody to the kinase domain of HPK1 results in a high degree of FRET (fluorescence resonance energy transfer) from the anti-GST tagged europium (Eu) fluorophore to the Alexa Fluor® 647 fluorophore on the kinase tracer and this signal is reduced in presence of the inhibitor that can be measured.
# Test compounds or reference compounds such as Sunitinib (Sigma) were dissolved in dimethylsulfoxide (DMSO) to prepare 10.0 mM stock solutions and diluted to the desired concentration. The final concentration of DMSO in the reaction was 3% (v/v). The assay mixture was prepared by mixing 4 nM of the Eu-Anti-GST Antibody and 10 nM MAP4K-1 enzyme in the Kinase buffer containing 50mM HEPES (pH 7.5), 10 mM MgCl2, 1 mM EGTA, 0.01% Brij-35 with or without the desired concentration of the compound. The reaction was incubated on ice for 15 mins. The pre-incubation step was followed by addition of the 20 nM Kinase Tracer 222 into the reaction mixture. After shaking for 5 min the reaction was further incubated for 1 hour at room temperature and this was kept at 4° C. and read on ARTEMIS reader as per the kit instructions (Thermo). […] The activity was calculated as percent of control reaction. IC50 values were calculated from dose response curve by nonlinear regression analysis using GraphPad Prism software.
# Percentage inhibition at concentrations of 1.0 μM and 10.0 μM are given in the table along with IC50 (nM) details for selected examples.
# HPK1 (MAP4K1), sequence (Q92918 whole entry): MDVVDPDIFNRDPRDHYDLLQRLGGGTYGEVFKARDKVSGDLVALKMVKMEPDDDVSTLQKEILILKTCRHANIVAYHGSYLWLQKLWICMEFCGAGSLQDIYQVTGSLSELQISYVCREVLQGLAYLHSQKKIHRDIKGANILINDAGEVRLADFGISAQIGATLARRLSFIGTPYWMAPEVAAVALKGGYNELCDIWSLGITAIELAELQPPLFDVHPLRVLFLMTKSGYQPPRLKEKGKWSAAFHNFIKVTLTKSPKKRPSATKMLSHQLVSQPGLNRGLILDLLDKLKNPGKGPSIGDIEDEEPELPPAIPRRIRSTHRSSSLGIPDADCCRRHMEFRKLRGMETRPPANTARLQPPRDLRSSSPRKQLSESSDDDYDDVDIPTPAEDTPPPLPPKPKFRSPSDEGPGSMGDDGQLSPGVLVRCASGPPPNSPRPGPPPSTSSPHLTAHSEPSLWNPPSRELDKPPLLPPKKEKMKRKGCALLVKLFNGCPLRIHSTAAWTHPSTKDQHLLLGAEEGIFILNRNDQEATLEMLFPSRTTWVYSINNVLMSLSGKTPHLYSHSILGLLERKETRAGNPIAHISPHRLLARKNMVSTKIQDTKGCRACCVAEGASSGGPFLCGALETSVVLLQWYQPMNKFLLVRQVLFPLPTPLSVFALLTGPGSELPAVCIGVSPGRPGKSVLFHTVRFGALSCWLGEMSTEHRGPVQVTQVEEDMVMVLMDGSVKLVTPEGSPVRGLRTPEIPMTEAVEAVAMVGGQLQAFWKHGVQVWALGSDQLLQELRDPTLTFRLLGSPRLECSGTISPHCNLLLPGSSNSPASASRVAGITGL
compound,measurement,value
"C/C(Nc1cnn(C)c1)=C1/C(=O)Nc2cnc(-c3cnccc3C)cc21 [Example 23, (Z)-3-(1-((1-methyl-1H-pyrazol-4-yl)amino)ethylidene)-5-(4-methylpyridin-3-yl)-1H-pyrrolo[2,3-c]pyridin-2(3H)-one]",inhibition at 1 µM,84.6%
same,inhibition at 10 µM,87%
same,IC50,< 50 nM
"C/C(Nc1cnn(C)c1)=C1/C(=O)Nc2cnc(-c3ccc(F)cc3F)cc21 [Example 24, (Z)-5-(2,4-Difluorophenyl)-3-(1-((1-methyl-1H-pyrazol-4-yl)amino)ethylidene)-1H-pyrrolo[2,3-c]pyridin-2(3H)-one]",inhibition at 1 µM,70.9%
same,inhibition at 10 µM,79.7%
same,IC50,100 to 500 nM
"CCOc1cccc(F)c1-c1cc2c(cn1)NC(=O)/C2=C(/C)Nc1cnn(C)c1 [Example 25, (Z)-5-(2-Ethoxy-6-fluorophenyl)-3-(1-((1-methyl-1H-pyrazol-4-yl)amino)ethylidene)-1H-pyrrolo[2,3-c]pyridin-2(3H)-one]",inhibition at 1 µM,87.1%
same,inhibition at 10 µM,85.3%
same,IC50,< 50 nM
COc1cccc(F)c1-c1cc2c(cc1F)NC(=O)/C2=C(/C)Nc1cnn(C)c1 [Example 26],inhibition at 1 µM,88.8%
same,inhibition at 10 µM,93.5%
same,IC50,< 50 nM
"COc1cccc(F)c1-c1cc2c(cn1)NC(=O)/C2=C(/C)Nc1cnn(C2COC2)c1 [Example 27, (Z)-5-(2-Fluoro-6-methoxyphenyl)-3-(1-((1-(oxetan-3-yl)-1H-pyrazol-4-yl)amino)ethylidene)-1H-pyrrolo[2,3-c]pyridin-2(3H)-one]",inhibition at 1 µM,88.4%
same,inhibition at 10 µM,96.3%
same,IC50,< 50 nM
"COc1cccc(F)c1-c1cc2c(cn1)NC(=O)/C2=C(/C)Nc1ccn(C)n1 [Example 28, (Z)-5-(2-Fluoro-6-methoxyphenyl)-3-(1-((1-methyl-1H-pyrazol-3-yl)amino)ethylidene)-1H-pyrrolo[2,3-c]pyridin-2(3H)-one]",inhibition at 1 µM,84.8%
same,inhibition at 10 µM,89.4%
same,IC50,< 50 nM
"CCn1cc(N/C(C)=C2\C(=O)Nc3cnc(-c4c(F)cccc4OC)cc32)cn1 [Example 29, (Z)-3-(1-((1-Ethyl-1H-pyrazol-4-yl)amino)ethylidene)-5-(2-fluoro-6-methoxyphenyl)-1H-pyrrolo[2,3-c]pyridin-2(3H)-one]",inhibition at 1 µM,87.4%
same,inhibition at 10 µM,85.1%
same,IC50,< 50 nM
"COc1cccc(F)c1-c1cc2c(cn1)NC(=O)/C2=C(/C)Nc1cnn(C2CC2)c1 [Example 30, (Z)-3-(1-((1-Cyclopropyl-1H-pyrazol-4-yl)amino)ethylidene)-5-(2-fluoro-6-methoxyphenyl)-1H-pyrrolo[2,3-c]pyridin-2(3H)-one]",inhibition at 1 µM,89.9%
same,inhibition at 10 µM,92.8%
same,IC50,< 50 nM
"COc1cccc(F)c1-c1cc2c(cn1)NC(=O)/C2=C(/C)Nc1cnn(C(C)C#N)c1 (centres unmarked) [Example 31, (Z)-2-(4-((1-(5-(2-Fluoro-6-methoxyphenyl)-2-oxo-1H-pyrrolo[2,3-c]pyridin-3(2H)-ylidene)ethyl)amino)-1H-pyrazol-1-yl)propanenitrile]",inhibition at 1 µM,86.9%
same,inhibition at 10 µM,92.3%
same,IC50,< 50 nM
"CC/C(Nc1cnn(C)c1)=C1/C(=O)Nc2cnc(-c3c(F)cccc3OC)cc21 [Example 32, (Z)-5-(2-Fluoro-6-methoxyphenyl)-3-(1-((1-methyl-1H-pyrazol-4-yl)amino)propylidene)-1H-pyrrolo[2,3-c]pyridin-2(3H)-one]",inhibition at 1 µM,90.3%
same,inhibition at 10 µM,100%
same,IC50,< 50 nM
"COc1ccncc1-c1cc2c(cn1)NC(=O)/C2=C(/C)Nc1cnn(C)c1 [Example 33, (Z)-5-(4-methoxypyridin-3-yl)-3-(1-((1-methyl-1H-pyrazol-4-yl)amino)ethylidene)-1H-pyrrolo[2,3-c]pyridin-2(3H)-one]",inhibition at 1 µM,91.6%
same,inhibition at 10 µM,87.8%
same,IC50,< 50 nM
"CCOc1cccc(F)c1-c1cc2c(cn1)NC(=O)/C2=C(/C)Nc1ccc(N2CCNCC2)cc1 [Example 34, (Z)-5-(2-Ethoxy-6-fluorophenyl)-3-(1-((4-(piperazin-1-yl)phenyl)amino)ethylidene)-1H-pyrrolo[2,3-c]pyridin-2(3H)-one]",inhibition at 1 µM,81.7%
same,inhibition at 10 µM,80%
same,IC50,< 50 nM
"C/C(Nc1cnn(C)c1)=C1/C(=O)Nc2cnc(-c3c(F)cccc3OC(F)F)cc21 [Example 35, (Z)-5-(2-(Difluoromethoxy)-6-fluorophenyl)-3-(1-((1-methyl-1H-pyrazol-4-yl)amino)ethylidene)-1H-pyrrolo[2,3-c]pyridin-2(3H)-one]",inhibition at 1 µM,88%
same,inhibition at 10 µM,100%
same,IC50,< 50 nM
"CCOc1cccc(F)c1-c1cc2c(cn1)NC(=O)/C2=C(/C)Nc1ccc(N2CCNCC2)nc1 [Example 36, (Z)-5-(2-Ethoxy-6-fluorophenyl)-3-(1-((6-(piperazin-1-yl)pyridin-3-yl)amino)ethylidene)-1H-pyrrolo[2,3-c]pyridin-2(3H)-one]",inhibition at 1 µM,87.8%
same,inhibition at 10 µM,85.1%
same,IC50,< 50 nM
"CCOc1cccc(F)c1-c1cc2c(cn1)NC(=O)/C2=C(/C)Nc1ccc(N2CCOCC2)nc1 [Example 37, (Z)-5-(2-Ethoxy-6-fluorophenyl)-3-(1-((6-morpholinopyridin-3-yl)amino)ethylidene)-1H-pyrrolo[2,3-c]pyridin-2(3H)-one]",inhibition at 1 µM,84.4%
same,inhibition at 10 µM,91.2%
same,IC50,50 to 100 nM
"C/C(Nc1ccc(N2CCOCC2)nc1)=C1/C(=O)Nc2cnc(-c3cnccc3C)cc21 [Example 38, (Z)-5-(4-Methylpyridin-3-yl)-3-(1-((6-morpholinopyridin-3-yl)amino)ethylidene)-1H-pyrrolo[2,3-c]pyridin-2(3H)-one]",inhibition at 1 µM,93.5%
same,IC50,< 50 nM
"COCCn1cc(N/C(C)=C2\C(=O)Nc3cnc(-c4c(F)cccc4OC)cc32)cn1 [Example 39, (Z)-5-(2-Fluoro-6-methoxyphenyl)-3-(1-((1-(2-methoxyethyl)-1H-pyrazol-4-yl)amino)ethylidene)-1H-pyrrolo[2,3-c]pyridin-2(3H)-one]",inhibition at 1 µM,72.2%
same,inhibition at 10 µM,86.6%
same,IC50,< 50 nM
"COc1cccc(F)c1-c1cc2c(cn1)NC(=O)/C2=C(\Nc1cnn(C)c1)C(C)C [Example 40, (Z)-5-(2-Fluoro-6-methoxyphenyl)-3-(2-methyl-1-((1-methyl-1H-pyrazol-4-yl)amino)propylidene)-1H-pyrrolo[2,3-c]pyridin-2(3H)-one]",inhibition at 1 µM,81.3%
same,inhibition at 10 µM,92%
same,IC50,100 to 500 nM
"C/C(Nc1cnn(C)c1)=C1/C(=O)Nc2cnc(-c3cnn(C)c3C)cc21 [Example 41, (Z)-5-(1,5-Dimethyl-1H-pyrazol-4-yl)-3-(1-((1-methyl-1H-pyrazol-4-yl)amino)ethylidene)-1H-pyrrolo[2,3-c]pyridin-2(3H)-one]",inhibition at 1 µM,69.9%
same,inhibition at 10 µM,77%
same,IC50,50 to 100 nM
"COc1cccc(F)c1-c1ccc2c(n1)/C(=C(\C)Nc1cnn(C)c1)C(=O)N2 [Example 43, (Z)-5-(2-Fluoro-6-methoxyphenyl)-3-(1-((1-methyl-1H-pyrazol-4-yl)amino)ethylidene)-1H-pyrrolo[3,2-b]pyridin-2(3H)-one]",inhibition at 1 µM,86.2%
same,inhibition at 10 µM,89.2%
same,IC50,< 50 nM
